Biological target: Neuraminidase (Influenza A virus (A/Puerto Rico/8/1934(H1N1)), UniProt P03468)
Assay: Inhibition of influenza A sialidase (neuraminidase)
Parameters: species or system Influenza A virus (strain: A/PR/8/34)

SMILES	IC50 [µM]
CNC(=O)[C@@H]1OC(C(=O)O)=C[C@H](N)[C@H]1NC(C)=O	190
CC(=O)N[C@@H]1[C@@H](N=C(N)N)C=C(C(=O)O)O[C@H]1C(=O)N(C)C	0.025
CCCN(CCC)C(=O)[C@@H]1OC(C(=O)O)=C[C@H](N)[C@H]1NC(C)=O	0.003
CCN(CCc1ccccc1)C(=O)[C@@H]1OC(C(=O)O)=C[C@H](N)[C@H]1NC(C)=O	0.005
CCN(CC)C(=O)[C@@H]1OC(C(=O)O)=C[C@H](N)[C@H]1NC(C)=O	0.003
CCCN(CCc1ccccc1)C(=O)[C@@H]1OC(C(=O)O)=C[C@H](N=C(N)N)[C@H]1NC(C)=O	0.005
CCNC(=O)[C@@H]1OC(C(=O)O)=C[C@H](N)[C@H]1NC(C)=O	13
CNC(=O)[C@@H]1OC(C(=O)O)=C[C@H](N=C(N)N)[C@H]1NC(C)=O	7
CCCCN(CCCC)C(=O)[C@@H]1OC(C(=O)O)=C[C@H](N=C(N)N)[C@H]1NC(C)=O	0.016
CC(=O)N[C@H]1[C@H]([C@H](O)[C@H](O)CO)OC(C(=O)O)=C[C@@H]1N	0.3
CC(=O)N[C@@H]1[C@@H](N)C=C(C(=O)O)O[C@H]1C(=O)NCCc1ccccc1	12
CCN(CC)C(=O)[C@@H]1OC(C(=O)O)=C[C@H](NC(=N)N)[C@H]1NC(C)=O	0.001
CC(=O)N[C@@H]1[C@@H](N)C=C(C(=O)O)O[C@H]1C(=O)N(C)CCc1ccccc1	0.32
CCCN(CCc1ccc(-c2ccccc2)cc1)C(=O)[C@@H]1OC(C(=O)O)=C[C@H](N)[C@H]1NC(C)=O	0.003
